Data as given in paper PMC9862096, “Interaction of a Homologous Series of Amphiphiles with P-glycoprotein in a Membrane Environment—Contributions of Polar and Non-Polar Interactions” (Pharmaceutics, 2023).

Columns and labels:
[1] = biological target: T1, mP–gp (Mus musculus, UniProt P21447); test: Photolabeling of P–gp with [125I]-IAAP / IAAP displacement; type: binding; conditions: concentration of 2 μM, positive control
T1 construct: made in house; host or cells: High-Five insect cells (Invitrogen), recombinant baculovirus; total membrane vesicles
Protocol: The native membranes of High-Five insect cells expressing mP–gp (1.0 mg/mL) were incubated at room temperature with the indicated concentrations of the inhibitor for 5 min. IAAP (5 to 7 nM) was later added, and the reaction mixture was further incubated for 5 min under subdued light. The samples were photocross-linked with 366 nm UV light for 10 min at room temperature, followed by electrophoresis and quantification, as described previously. The raw data are shown in the Supplementary Information (Figure S4). The results were first analyzed with the usual equation, considering the total concentration of IAAP and NBD amphiphile, as well as competitive inhibition of IAAP binding, see Supplementary Information (Equation (S2)). The dissociation constant considered for IAAP was taken from the literature, 412 nM [15]. The results were also analyzed with a formalism derived in this manuscript considering the distribution of the NBD amphiphile in the distinct environments (aqueous phase, lipid bilayer, and P–gp), the distribution of IAAP between the aqueous media and P–gp, and several equal and independent binding sites in P–gp’s binding pocket, Equation (10).
In this assay, in addition to the binding of the NBD amphiphiles to P–gp binding pocket, it is also necessary to consider the binding of IAAP. The concentration of IAAP used in the assay (5 nM) is several orders of magnitude smaller than that of the amphiphiles in study, and it is also smaller than the total concentration of P–gp (59 nM). Therefore, Equation (8) may be used to calculate the concentration of free ligand and protein. The fraction of IAAP bound to P–gp may then be calculated from Equation (10), where P^* is the concentration of P–gp available for IAAP binding. (10) IP/IT=−b−b^2−4ac/2aa=1; b=−1+KdIAAP/IT+P^*/IT; c=P^*/IT
The number of binding sites in P–gp binding pocket was varied from 1 to 5, and three situations were considered in the analysis: (i) full inhibition of IAAP binding when at least one NBD amphiphile is in the P–gp binding pocket ( i≥1 ), corresponding to P^*=P; (ii) inhibition of IAAP binding only when P–gp is fully saturated ( i=n ), corresponding to P^*=P+∑i=1n−1PLi; and (iii) an intermediate situation with IAAP displacement for i≥n−1 , corresponding to P^*=P+∑i=1n−2PLi .
The displacement of IAAP from P–gp binding pocket was calculated from Equation (11), where IP0 is the concentration of IAAP bound to P–gp in the absence of the NBD amphiphiles. (11) IAAP displacement %=100IP0−IP/IP0

[2] = biological target: T1, mP–gp; design: method as in PMID 28283574; conditions: positive control; read-out: KI, inhibition of IAAP binding; cited from earlier work
[3] = Association (partition) of the NBD amphiphiles with native membranes, NBD fluorescence; type: physicochemical, High-Five insect cells; conditions: for KPW→M: aqueous phase to native membrane
Protocol: (§1) The membranes were diluted to the chosen concentration with simplified ATPase assay buffer and warmed to 37 °C. The NBD amphiphiles were added from stocks in DMSO (final DMSO 1% v/v) by squirting the required volume into the membrane solution under gentle vortex. Fluorescence intensity was measured after 15 to 30 min incubation at 37 °C using a Cary Eclipse spectrofluorimeter (Varian, Singapore). The path length of the sample container was selected to guarantee that scattering at the excitation wavelength was smaller than 0.1 while maintaining a good signal/noise ratio (3, 5, or 10 mm).
(§2) The increase in fluorescence of the NBD amphiphiles when associated with the model membranes was well described by a simple partition (Equation (S3)). The low affinity of the less lipophilic amphiphiles for the native membranes required the use of high membrane concentrations, and the fluorescence was measured with the plate reader SpectraMax iD5 (Molecular Devices, Berkshire, UK), where the reading setup is not very sensitive to scatter. To guarantee that the high scatter intensity was not leading to artifacts in the measured fluorescence intensity of NBD–C4, titrations of NBD-C6 and NBD–C8 were also performed in the same plate. For these two latter amphiphiles, the results obtained for the partition coefficient were similar to those obtained for experiments with low scatter intensity. A small decrease in the fluorescence intensity from NBD–C8 was nevertheless observed at very high scatter intensities (OD ≥ 0.5), which was used to correct the signal from the less lipophilic amphiphiles, see Supplementary Information (Figure S5 and Equation (S4)). The molar volume considered for the lipid was 0.8 dm^3/mol, and 1.2 g/mL was considered for the density of the membrane proteins.
S3 – Partition of the NBD amphiphiles to lipid bilayers and native membranes The fluorescence increase that accompanies the association of the NBD amphiphiles with the model membra nes was well defined by a simple partition, equation S3. […]
where IfW and If M are respec ti vel y the fluorescence intensity when all fluorescent amphiphile is in the aqueous phase and ass oci ated with the membranes, LbK is the partition co eff icient P between the aqueous and the lipid bilayer, V is the molar vo l u m e of the lipid when in the lipid L bi l ayer, and [L] is the lipid concentration.
To characterize the association of the NBD amphiphiles with the native membranes the whole membrane vo lume was considere d, including the lipid bilayer and the membrane proteins. For the ca se of the less lipophilic amphiphiles NBD‐C4 and NBD‐C6, a sig nif ica nt scatter from the […]
both to the larger size of the vesicles (ca 1 µm diameter, [1]) and to the high refractive index of the native membranes. The magnitude of the scatter effect was quantified through the best fit […]
partition to the membranes at co n ce ntrations where scatter is not significant. The modified […]
where s is the scatter correction factor for a given concentration of native membranes, If W and IfM are respectively the fluorescence intensity when all fluorescent amphiphile is in the aqueous phase and associated with the membranes, WMK → is the partition coefficient between the P aqueous phase and the native membrane, V is the molar volume of the lipid when in the L membrane and [L] the molar concentration of the membrane lipids, V is the vo lume occupied P by 1 g of membrane protein (assuming a density of 1.2 g/mL) and [P] is the protein concentration in units of ma ss per volume.
Typical results obtained for the variation of the fluorescence intensity at 540 nm of the NBD‐Cn fluorophores equilibrated with increasing concentrations of native membranes, are shown in figure S3. The fluorescence intensity was measured in black 96 well plates with the plate reader […]
SpectraMax iD5. The NBD‐Cn concentrations we re 0.5 µM for NBD‐C8 , 1 µM for NBD‐C6, and 2 µM for NBD‐C4, and the total volume per well was 150 µL. […]

[4] = Association (partition) with model membranes (LUVs POPE:POPC:POPS 45:35:20); type: physicochemical; conditions: aqueous phase to model lipid bilayer
Protocol: The model membranes with a phospholipid composition representative of that of the native membranes (POPE:POPC:POPS 45:35 20) were prepared from stock solutions of the required lipids in chloroform or in chloroform/methanol (87/13, v/v), as described before. The solvent-free lipid residue was hydrated at 40 °C with previously heated simplified ATPase assay buffer (with all components except Ouabain and DTT). Large Unilamelar Vesicles were prepared by extrusion through two-staked polycarbonate filters (100 nm pore diameter), and the size of the LUVs was analyzed by dynamic light scattering (Zetasizer Nano ZS, Malvern, UK) being close to the filter pore size.
as §1, §2
S3 – Partition of the NBD amphiphiles to lipid bilayers and native membranes
The fluorescence increase that accompanies the association of the NBD amphiphiles with the
model membra nes was well defined by a simple partition, equation S3.
If 1540 nm Lb= + S3, KVL[]
where IfW and If M are respec ti vel y the fluorescence intensity when all fluorescent amphiphile is
in the aqueous phase and ass oci ated with the membranes, LbK is the partition co eff icient P
between the aqueous and the lipid bilayer, V is the molar vo l u m e of the lipid when in the lipid L
bi l ayer, and [L] is the lipid concentration. […]

[5] = system: P–gp; test: Partition coefficient to membrane protein from Equations (1) and (2), binding to P–gp only; type: physicochemical, mouse; conditions: binding to the protein P–gp only
Description: (§3) From the partition coefficient obtained for the native membranes, KPW→M , and that for the model lipid bilayers, KPW→Lb , one can calculate the partition coefficient between the aqueous phase and the proteins in the membrane, KPW→P , and from the lipid bilayer to the proteins, KPLb→P , Equations (1) and (2), [40]. (1) KPW→M VM=KPW→PVP+KPW→Lb VLb (2) KPLb→P=KPW→P/KPW→Lb
(§4) In Equation (1) it is necessary to include the volume occupied by the proteins, and the values obtained will, therefore, depend on whether it is considered that the amphiphile may interact with all proteins in the membrane or with P–gp only.

[6] = Partition coefficient to membrane proteins from Equations (1) and (2), all membrane proteins with equal affinity; type: physicochemical, High-Five insect cells; conditions: binding to all membrane proteins with equal affinity
Description: as §3, §4

[7] = cited from earlier work
[8] = e.g. 1 M trehalose; cited from earlier work

T1 sequence (P21447 whole entry): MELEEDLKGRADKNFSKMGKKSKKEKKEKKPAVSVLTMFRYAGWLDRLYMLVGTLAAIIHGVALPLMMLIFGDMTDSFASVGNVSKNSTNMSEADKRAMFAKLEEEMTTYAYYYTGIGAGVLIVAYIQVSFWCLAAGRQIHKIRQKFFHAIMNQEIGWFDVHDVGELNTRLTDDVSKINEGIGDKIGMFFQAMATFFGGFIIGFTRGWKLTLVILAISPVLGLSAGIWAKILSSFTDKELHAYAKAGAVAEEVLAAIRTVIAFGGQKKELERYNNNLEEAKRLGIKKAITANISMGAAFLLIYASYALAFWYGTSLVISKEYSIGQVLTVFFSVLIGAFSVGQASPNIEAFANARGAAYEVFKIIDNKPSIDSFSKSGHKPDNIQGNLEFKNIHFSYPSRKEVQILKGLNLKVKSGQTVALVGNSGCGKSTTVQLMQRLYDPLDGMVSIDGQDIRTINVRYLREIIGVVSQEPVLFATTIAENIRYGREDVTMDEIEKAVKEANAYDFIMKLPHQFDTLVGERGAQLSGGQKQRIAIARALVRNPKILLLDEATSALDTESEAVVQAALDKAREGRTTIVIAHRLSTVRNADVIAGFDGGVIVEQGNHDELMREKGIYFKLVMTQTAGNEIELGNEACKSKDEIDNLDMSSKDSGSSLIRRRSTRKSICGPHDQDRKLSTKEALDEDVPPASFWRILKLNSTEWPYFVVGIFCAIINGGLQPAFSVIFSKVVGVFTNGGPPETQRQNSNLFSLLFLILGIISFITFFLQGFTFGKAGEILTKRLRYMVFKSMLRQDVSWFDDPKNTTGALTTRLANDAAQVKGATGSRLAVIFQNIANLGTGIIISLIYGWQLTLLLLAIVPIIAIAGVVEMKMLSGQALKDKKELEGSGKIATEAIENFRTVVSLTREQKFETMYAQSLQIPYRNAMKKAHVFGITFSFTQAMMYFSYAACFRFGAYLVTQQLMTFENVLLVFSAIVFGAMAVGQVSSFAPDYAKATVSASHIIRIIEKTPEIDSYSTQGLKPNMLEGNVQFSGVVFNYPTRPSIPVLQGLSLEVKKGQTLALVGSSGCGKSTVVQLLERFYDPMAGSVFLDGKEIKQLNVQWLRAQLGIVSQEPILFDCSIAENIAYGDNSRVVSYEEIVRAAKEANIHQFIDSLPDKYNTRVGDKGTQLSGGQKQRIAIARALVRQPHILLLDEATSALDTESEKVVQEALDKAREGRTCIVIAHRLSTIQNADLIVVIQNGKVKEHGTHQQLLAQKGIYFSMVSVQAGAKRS

**Q.** Which “Inhibition of IAAP binding” value [1] does the source give for `COc1cc2c(cc1OC)CN(CCc1ccc(NC(=O)c3cc(OC)c(OC)cc3NC(=O)c3cnc4ccccc4c3)cc1)CC2` [Tariquidar, reference compound] here?
**A.** efficient inhibition of IAAP binding

**Q.** What about the Ki [2] of the same compound?
**A.** 200 nM

**Q.** With `CCCCCCNc1ccc([N+](=O)[O-])c2nonc12` [NBD-C6] as the compound, how does the “LogKP, association with the native membranes” value ([3]; 37 °C, simplified ATPase assay buffer) read?
**A.** 3.20 ± 0.26

**Q.** What about the KPW→M ([3]; membrane volume = phospholipid bilayer and P–gp (binding to the protein P–gp only)) of the same compound?
**A.** 3.9 × 10^3

**Q.** And the KPW→M ([3]; membrane volume = phospholipid bilayer and all proteins (binding to all membrane proteins with equal affinity))?
**A.** 1.6 × 10^3

**Q.** What about the KPW→Lb ([4]; section: binding to all membrane proteins with equal affinity) of the same compound?
**A.** 2.4 × 10^3

**Q.** What about the KPW→Lb ([4]; section: binding to the protein P–gp only) of the same compound?
**A.** 2.4 × 10^3

**Q.** What about the KPW→P ([5]; aqueous phase to protein) of the same compound?
**A.** 1.0 × 10^5

**Q.** And the KPLb→P ([5]; lipid bilayer to protein)?
**A.** 43

**Q.** What about the KPW→P ([6]; aqueous phase to proteins) of the same compound?
**A.** 1.0 × 10^3

**Q.** What about the KPLb→P ([6]; lipid bilayer to proteins) of the same compound?
**A.** 0.43

**Q.** What about the “LogKP, association with POPC bilayers” value [7] of the same compound?
**A.** 3.79

**Q.** Which “increase of CAC in the presence of co-solvent” value [8] does the source give for `CCCCCCCCCCNc1ccc([N+](=O)[O-])c2nonc12` [NBD-C10] here?
**A.** 6 fold
